Results published in PubChem BioAssay (NCI).
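Protocol summary: plate cells (96-well), add compound at 5 concentrations, incubate 48 h, interpolate endpoints linearly. At the GI50, growth is halved. TGI: total growth inhibition.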

How the values were obtained:
Assay in all cases: NCI tumour cell line growth inhibition, 48 h
A549 NSCLC = tested on: A549 NSCLC
SK-MEL-2 melanoma = tested on: SK-MEL-2 melanoma
OVCAR-8 ovarian = tested on: OVCAR-8 ovarian
RXF 393 renal = tested on: RXF 393 renal
UO-31 renal = tested on: UO-31 renal
SNB-19 CNS = tested on: SNB-19 CNS
OVCAR-3 ovarian = tested on: OVCAR-3 ovarian
SK-MEL-5 melanoma = tested on: SK-MEL-5 melanoma
K-562 leukemia = tested on: K-562 leukemia
TK-10 renal = tested on: TK-10 renal

Row | SMILES | TGI (A549 NSCLC) [µM] | TGI (SK-MEL-2 melanoma) [µM] | TGI (OVCAR-8 ovarian) [µM] | TGI (RXF 393 renal) [µM] | TGI (UO-31 renal) [µM] | TGI (SNB-19 CNS) [µM] | TGI (OVCAR-3 ovarian) [µM] | TGI (SK-MEL-5 melanoma) [µM] | TGI (K-562 leukemia) [µM] | TGI (TK-10 renal) [µM] | GI50 (A549 NSCLC) [µM] | GI50 (SK-MEL-2 melanoma) [µM] | GI50 (OVCAR-8 ovarian) [µM] | GI50 (RXF 393 renal) [µM] | GI50 (UO-31 renal) [µM] | GI50 (SNB-19 CNS) [µM] | GI50 (OVCAR-3 ovarian) [µM] | GI50 (SK-MEL-5 melanoma) [µM] | GI50 (K-562 leukemia) [µM] | GI50 (TK-10 renal) [µM]
1 | c1cnn(CN(Cn2cccn2)Cn2cccn2)c1 | > 100 | > 100 | > 100 | > 100 | > 100 | > 100 | > 100 | > 100 | > 100 | > 100 |  |  |  |  |  |  |  |  |  | 
2 | O=C(CCc1nc(=S)[nH][nH]1)Nc1ccccc1Cl | > 100 | > 100 | > 100 | > 100 | > 100 | > 100 | > 100 | > 100 | > 100 | > 100 |  |  |  |  |  |  |  |  |  | 
3 | COC(=O)C(Cc1nc2ccccc2[nH]c1=O)C(NO)C(=O)Nc1c(Cl)cc([N+](=O)[O-])cc1Cl (configuration not stated) | > 100 | 82.2 | > 100 | 50.2 | > 100 | > 100 | > 100 | 46.4 | > 100 |  |  |  |  |  |  |  |  |  |  | 
4 | Cc1cc(C)c(NC(=O)c2sc3nc4c(cc3c2N)C(=O)CCC4)c(C)c1 | > 100 | 38.7 | > 100 | 4.43 | > 100 | > 100 | 8.62 | 13.8 | > 100 | > 87.9 | 2.51 | 0.468 | 5.88 | 1.32 | 9.04 | 6.12 | 2.46 | 0.998 | 1.9 | 4.5
5 | COc1ccc(C[N+](C)(C)N)cc1OC | > 100 | > 100 | > 100 | > 100 | > 100 | > 100 | > 100 | > 100 | > 100 | > 100 | > 100 |  | > 100 |  |  | > 100 | > 100 | > 100 |  | > 100
6 | COc1ccc(/C=C/c2c(C(=O)/C=C/c3ccccc3)c(C)nc3ccccc23)cc1 |  | 5.06 | 4.1 | 3.04 | 2.54 | 3.07 | 3.12 | 3.13 | 7.19 | 5.73 |  | 2.11 | 1.75 | 1.63 | 1.28 | 1.66 | 1.65 | 1.73 | 2.33 | 2.55
7 | CCCN(CCC)C(=O)c1c([N+](=O)[O-])cc(C(F)(F)F)cc1[N+](=O)[O-] | > 100 | > 100 | > 100 | 79.7 | > 100 | > 100 | 34.8 |  | > 100 | > 100 |  |  |  |  |  |  |  |  |  | 
8 | CC1=C(/C=C/Cl)CC(Cl)C(C)(Cl)C1 (configuration not stated) | > 100 | > 100 | > 100 | 71.3 | > 100 | > 100 |  | > 100 | > 100 | > 100 |  |  |  |  |  |  |  |  |  | 
9 | O=C(c1cccc2ccccc12)N1CCC(C2CCN(C(=O)c3cccc4ccccc34)CC2)CC1 | > 100 | > 100 | > 100 | > 100 | > 100 |  | > 100 | > 100 | > 100 | > 100 |  |  |  |  |  |  |  |  |  | 
10 | CCOC(=O)C1SC(=Nc2ccc(C)c(C)c2)N=C1C (configuration not stated) | > 100 | > 100 | > 100 |  | > 100 | > 100 | > 100 | > 100 | > 100 | > 100 |  |  |  |  |  |  |  |  |  | 
11 | CNC(=S)/N=C(\N)N(C)C | > 100 |  | > 100 | > 100 | > 100 | > 100 | > 100 | > 100 | > 100 | > 100 |  |  |  |  |  |  |  |  |  | 
12 | COC(=O)[C@@]12C(=O)C=CC(=O)C1C1C(=CC2C)OC2OC3(CCCCC3)OC21 (some centres not stated) | 36.3 | 35.5 | 30.9 |  | 30.5 | 31.9 | 33.8 | 33.6 | 74.6 | 31.6 |  |  |  |  |  |  |  |  |  | 
13 | COc1cc2[nH]c3c(c2cc1OC)CCN[C@]31CC[C@]2(CC3c4c(cc(OC)c(O)c42)CCN3C)C[C@H]1OC (some centres not stated) | 68.8 |  | 50 | 18.6 |  | > 100 | 46.2 | 30.6 | 23.7 | 51.1 |  |  |  |  |  |  |  |  |  | 
14 | O=C1c2ccccc2C(=O)C1(O)c1c[nH]c2ccccc12 | > 100 | > 100 | > 100 |  | > 100 | > 100 | > 100 |  | > 100 | > 100 |  |  |  |  |  |  |  |  |  | 
15 | Cc1[nH]c(=O)nc2[nH][nH]c(=O)c12 | > 100 | > 100 | > 100 | > 100 |  |  | > 100 |  | > 100 | > 100 |  |  |  |  |  |  |  |  |  | 
16 | OCC1OC(n2cnc3c2NC=NC[C@H]3O)C(Cl)C1O (some centres not stated) | > 100 | > 100 | > 100 |  | > 100 | > 100 | > 100 | > 100 |  | > 100 |  |  |  |  |  |  |  |  |  | 
17 | COc1ccc(C(=O)c2cc(C)c(OC)c(C)c2)cc1OC(=O)CCl | > 100 | > 100 | > 100 |  | > 100 | > 100 | 1.08 | 0.459 | > 100 | > 100 | 0.0845 | < 0.01 | < 0.01 |  |  | < 0.01 | < 0.01 | < 0.01 | < 0.01 | 34.7
18 | CCNCCNc1cc(-c2ccc(C(F)(F)F)cc2)c(C#N)c2nc3ccccc3n12 | 3.41 | 3.87 | 3.6 | 3.16 | 2.77 | 3.32 | 1 | 3.04 |  | 3.76 | 1.75 | 2.03 | 1.75 | 1.69 | 1.36 | 1.72 | 0.306 | 1.67 |  | 2.14
19 | COc1ccc(-c2nc3ccccn3c2/C=C/C(=O)c2cc(OC)c(OC)c(OC)c2)cc1OC | 30.7 | 7.19 | 11.1 |  | 12.7 | > 100 | 8.56 | 2.92 | > 100 | 8.74 | 3.86 | 2.37 | 2.83 |  | 0.552 | 4.91 | 2.47 | 1.5 | 2.99 | 3.28
20 | COc1ccc(-c2cc(-c3cc(C)cc(Br)c3O)no2)cc1 | 57 | 75 | > 100 |  | 31.9 | 58 | 23.9 | 24.3 | > 100 | 38.5 |  |  |  |  |  |  |  |  |  | 
21 | O=C(N/N=C/c1cc(Br)ccc1O)N/N=C/c1cc(Br)ccc1O | > 100 |  | 21.1 | > 100 | > 100 | > 100 |  | > 100 | > 100 | > 100 |  |  |  |  |  |  |  |  |  | 
22 | CC(=O)C1Cn2c(nc3ccccc32)C[Se]1 (configuration not stated) | 36.2 |  | 13.3 | 5.2 | 8.46 | 16 | 4.5 | 3.61 | 31.7 | 13 |  |  |  |  |  |  |  |  |  | 
23 | Nc1ccccc1/C(O)=C1/CCOC1=O | > 100 | > 100 | > 100 |  | > 100 | > 100 | > 100 |  | > 100 | > 100 |  |  |  |  |  |  |  |  |  | 
24 | CC12OC(C(=O)C13CC3)C1C(=O)c3ccc4c(ccc5ccccc54)c3C(=O)C12 (configuration not stated) | > 100 | > 100 | > 100 | 61.8 | > 100 | > 100 |  |  | > 100 | > 100 | 45 | 53.1 | 30.4 | 22.5 | 77.3 | 71.8 |  |  | 47.6 | 37.1
25 | COc1cc2c3c(n(CCCN)c(=O)c2cc1OC)-c1ccc(C#N)cc1C3=O | 22.1 | > 100 | 24.9 |  | 71.2 | 30.4 | 39.9 | 32.6 | 65.4 | 41.3 | 5.53 | 26.2 | 5.54 |  | 19.1 | 11.6 | 19.1 | 16.4 |  | 16.9
26 | COC(=O)C12CC3CC(CC(C(=O)O)(C3)C1)C2 | > 100 |  | > 100 |  | > 100 | > 100 | > 100 | > 100 | > 100 | > 100 |  |  |  |  |  |  |  |  |  | 
27 | [N-]=[N+]=C1C(=O)NN=C1c1ccccc1 | > 100 | > 100 | > 100 | > 100 |  |  | > 100 |  | > 100 | > 100 |  |  |  |  |  |  |  |  |  | 
28 | CCOC(=O)N[C@@H]1C(CC(=O)OC)O[C@H]2OC(C)(C)O[C@H]21 (some centres not stated) | > 100 | > 100 |  | > 100 | > 100 |  | > 100 | > 100 | > 100 |  |  |  |  |  |  |  |  |  |  | 
29 | Cc1cc(NC(=S)SCc2ccc(F)cc2)c([N+](=O)[O-])cc1C | > 100 |  | 38.6 | 82.9 |  | 77.1 | 54.6 | 26 | > 100 | 65.4 |  |  |  |  |  |  |  |  |  | 
30 | CCCC1=C(CC)C(C(=O)Nc2c(C)cccc2C)=NC(S)N1 (configuration not stated) | > 100 | > 100 | > 100 |  | > 100 | > 100 | > 100 | > 100 | > 100 | > 100 |  |  |  |  |  |  |  |  |  | 
